Values of other authors as cited in patent US11213604B2, “Composition for dressing cutaneous lesions and manufacturing method thereof” (priority 2016, dated 2022).

Test system: cutaneous leishmanial ulcers
Conditions: protocols (1), (3), (2) of Stahl et al., BMC Infectious Diseases 2014

## sodium stilbogluconate
  Median healing time: 9 weeks
